# What was measured:
# [1] = organism: Mus musculus; experiment: Tested for the anticonvulsant activity by the antagonism of the audiogenic seizures in DBA/2 mice after 30 minutes; type: functional; conditions: 0.5 h
# [2] = tested on: Mus musculus; experiment: Tested for anticonvulsant activity by the antagonism of audiogenic seizures in DBA/2 mice and number of mice protected from tonic seizure/number of mice tested at 250 mg/kg dose after 30 mins was reported (8 out of 8); type: functional
# [3] = tested on: Mus musculus; experiment: Tested for anticonvulsant activity by the antagonism of audiogenic seizures in DBA/2 mice and number of mice protected from tonic seizure/number of mice tested at 250 mg/kg dose after 60 mins was reported (7 out of 8); type: functional
# [4] = tested on: Mus musculus; experiment: Tested for anticonvulsant activity by the antagonism of audiogenic seizures in DBA/2 mice and number of mice protected from tonic seizure/number of mice tested at 250 mg/kg dose after 120 mins was reported (2 out of 8); type: functional
# [5] = tested on: Mus musculus; experiment: Tested for anticonvulsant activity by the antagonism of audiogenic seizures in DBA/2 mice and number of mice protected from tonic seizure/number of mice tested at 250 mg/kg dose after 15 mins was reported (8 out of 8); type: functional
# [6] = tested on: Mus musculus; experiment: Tested for the effective dose required for anticonvulsant activity when given intraperitoneally after 15 minutes in DBA/2 mice; type: functional; conditions: ip, 0.25 h
# [7] = Half-life at pH 7.4; type: ADME; conditions: buffer
# [8] = tested on: Mus musculus; experiment: Tested for the effective dose required for anticonvulsant activity when given intraperitoneally after 30 minutes in DBA/2 mice; type: functional; conditions: ip, 0.5 h
# [9] = tested on: Mus musculus; experiment: Tested for anticonvulsant activity by the antagonism of audiogenic seizures in DBA/2 mice and number of mice protected from tonic seizure/number of mice tested at 250 mg/kg dose after 60 mins was reported (5 out of 7); type: functional
# [10] = tested on: Mus musculus; experiment: Tested for anticonvulsant activity by the antagonism of audiogenic seizures in DBA/2 mice and number of mice protected from tonic seizure/number of mice tested at 250 mg/kg dose after 120 mins was reported (1 out of 8); type: functional
# [11] = tested on: Mus musculus; experiment: Tested for anticonvulsant activity by the antagonism of audiogenic seizures in DBA/2 mice and number of mice protected from tonic seizure/number of mice tested at 250 mg/kg dose after 60 mins was reported (1 out of 7); type: functional
# [12] = tested on: Mus musculus; experiment: Tested for anticonvulsant activity by the antagonism of audiogenic seizures in DBA/2 mice and number of mice protected from tonic seizure/number of mice tested at 250 mg/kg dose after 120 mins was reported (1 out of 7); type: functional
# [13] = tested on: Mus musculus; experiment: Tested for anticonvulsant activity by the antagonism of audiogenic seizures in DBA/2 mice and number of mice protected from tonic seizure/number of mice tested at 250 mg/kg dose after 30 mins was reported (7 out of 7); type: functional
# [14] = tested on: Mus musculus; experiment: Tested for anticonvulsant activity by the antagonism of audiogenic seizures in DBA/2 mice and number of mice protected from tonic seizure/number of mice tested at 250 mg/kg dose after 15 mins was reported (7 out of 7); type: functional
# [15] = tested on: Mus musculus; experiment: Tested for anticonvulsant activity by the antagonism of audiogenic seizures in DBA/2 mice and number of mice protected from tonic seizure/number of mice tested at 250 mg/kg dose after 120 mins was reported (3 out of 9); type: functional
# [16] = tested on: Mus musculus; experiment: Tested for anticonvulsant activity by the antagonism of audiogenic seizures in DBA/2 mice and number of mice protected from tonic seizure/number of mice tested at 250 mg/kg dose after 30 mins was reported (1 out of 8); type: functional
# [17] = tested on: Mus musculus; experiment: Tested for anticonvulsant activity by the antagonism of audiogenic seizures in DBA/2 mice and number of mice protected from tonic seizure/number of mice tested at 250 mg/kg dose after 15 mins was reported (0 out of 8); type: functional
# [18] = tested on: Mus musculus; experiment: Tested for anticonvulsant activity by the antagonism of audiogenic seizures in DBA/2 mice and number of mice protected from tonic seizure/number of mice tested at 250 mg/kg dose after 60 mins was reported (3 out of 8); type: functional
# [19] = tested on: Mus musculus; experiment: Tested for anticonvulsant activity by the antagonism of audiogenic seizures in DBA/2 mice and number of mice protected from tonic seizure/number of mice tested at 250 mg/kg dose after 30 mins was reported (0 out of 8); type: functional
# [20] = tested on: Mus musculus; experiment: Tested for anticonvulsant activity by the antagonism of audiogenic seizures in DBA/2 mice and number of mice protected from tonic seizure/number of mice tested at 250 mg/kg dose after 60 mins was reported (2 out of 8); type: functional
# [21] = tested on: Mus musculus; experiment: Tested for anticonvulsant activity by the antagonism of audiogenic seizures in DBA/2 mice and number of mice protected from tonic seizure/number of mice tested at 250 mg/kg dose after 120 mins was reported (0 out of 8); type: functional
# [22] = tested on: Mus musculus; experiment: Tested for anticonvulsant activity by the antagonism of audiogenic seizures in DBA/2 mice and number of mice protected from tonic seizure/number of mice tested at 250 mg/kg dose after 15 mins was reported (1 out of 8); type: functional
# [23] = tested on: Mus musculus; experiment: Tested for anticonvulsant activity by the antagonism of audiogenic seizures in DBA/2 mice and number of mice protected from tonic seizure/number of mice tested at 250 mg/kg dose after 60 mins was reported (1 out of 6); type: functional
# [24] = tested on: Mus musculus; experiment: Tested for anticonvulsant activity by the antagonism of audiogenic seizures in DBA/2 mice and number of mice protected from tonic seizure/number of mice tested at 250 mg/kg dose after 120 mins was reported (0 out of 6); type: functional
# [25] = tested on: Mus musculus; experiment: Tested for anticonvulsant activity by the antagonism of audiogenic seizures in DBA/2 mice and number of mice protected from tonic seizure/number of mice tested at 250 mg/kg dose after 30 mins was reported (1 out of 6); type: functional
# [26] = tested on: Mus musculus; experiment: Tested for anticonvulsant activity by the antagonism of audiogenic seizures in DBA/2 mice and number of mice protected from tonic seizure/number of mice tested at 250 mg/kg dose after 15 mins was reported (4 out of 8); type: functional
# [27] = tested on: Mus musculus; experiment: Tested for anticonvulsant activity by the antagonism of audiogenic seizures in DBA/2 mice and number of mice protected from tonic seizure/number of mice tested at 250 mg/kg dose after 30 mins was reported (7 out of 8); type: functional
# [28] = tested on: Mus musculus; experiment: Tested for anticonvulsant activity by the antagonism of audiogenic seizures in DBA/2 mice and number of mice protected from tonic seizure/number of mice tested at 250 mg/kg dose after 60 mins was reported (5 out of 8); type: functional
# [29] = tested on: Mus musculus; experiment: Tested for the effective dose required for anticonvulsant activity when given intraperitoneally; type: functional; conditions: ip
# [30] = tested on: Mus musculus; experiment: Tested for anticonvulsant activity by the antagonism of audiogenic seizures in DBA/2 mice and number of mice protected from tonic seizure/number of mice tested at 250 mg/kg dose after 15 mins was reported (5 out of 7); type: functional
# [31] = tested on: Mus musculus; experiment: Tested for anticonvulsant activity by the antagonism of audiogenic seizures in DBA/2 mice and number of mice protected from tonic seizure/number of mice tested at 250 mg/kg dose after 120 mins was reported (3 out of 7); type: functional
# [32] = tested on: Mus musculus; experiment: Tested for anticonvulsant activity by the antagonism of audiogenic seizures in DBA/2 mice and number of mice protected from tonic seizure/number of mice tested at 250 mg/kg dose after 60 mins was reported (4 out of 8); type: functional
# [33] = tested on: Mus musculus; experiment: Tested for anticonvulsant activity by the antagonism of audiogenic seizures in DBA/2 mice and number of mice protected from tonic seizure/number of mice tested at 250 mg/kg dose after 30 mins was reported (5 out of 8); type: functional
compound,measurement,setting,value
CC(CN(C)C)OC(=O)c1cc(O)c2c(Cl)cc(Cl)cc2n1 (stereo unspecified),ED50,[1],138 mg/kg
same,No. of mouse protected,[2],8
same,No. of mouse protected,[3],7
same,No. of mouse protected,[4],2
same,No. of mouse protected,[5],8
same,ED50,[6],62 mg/kg
CCN(CC)CCOC(=O)c1cc(O)c2c(Cl)cc(Cl)cc2n1,No. of mouse protected,[2],8
same,half-life,[7],22 min
same,ED50,[8],171 mg/kg
same,No. of mouse protected,[5],8
same,No. of mouse protected,[9],5
same,ED50,[6],98 mg/kg
same,No. of mouse protected,[10],1
CC(C)N(CCOC(=O)c1cc(O)c2c(Cl)cc(Cl)cc2n1)C(C)C,No. of mouse protected,[11],1
same,No. of mouse protected,[12],1
same,No. of mouse protected,[13],7
same,ED50,[6],152 mg/kg
same,No. of mouse protected,[14],7
O=C(OCCN1CCOCC1)c1cc(O)c2c(Cl)cc(Cl)cc2n1,No. of mouse protected,[15],3
same,No. of mouse protected,[16],1
same,No. of mouse protected,[17],0
same,No. of mouse protected,[18],3
O=C(NCCN1CCOCC1)c1cc(O)c2c(Cl)cc(Cl)cc2n1,No. of mouse protected,[19],0
same,No. of mouse protected,[20],2
same,No. of mouse protected,[21],0
same,No. of mouse protected,[22],1
C[N+](C)(C)CCNC(=O)c1cc(O)c2c(Cl)cc(Cl)cc2n1.[I-],No. of mouse protected,[23],1
same,No. of mouse protected,[24],0
same,No. of mouse protected,[25],1
same,No. of mouse protected,[26],4
O=C(OCCN1CCCC1)c1cc(O)c2c(Cl)cc(Cl)cc2n1,No. of mouse protected,[27],7
same,No. of mouse protected,[21],0
same,No. of mouse protected,[5],8
same,ED50,[6],128 mg/kg
same,No. of mouse protected,[28],5
O=C(O)c1cc(O)c2c(Cl)cc(Cl)cc2n1,No. of mouse protected,[19],0
same,ED50,[29],250 mg/kg
CN(C)CCCOC(=O)c1cc(O)c2c(Cl)cc(Cl)cc2n1,No. of mouse protected,[30],5
same,No. of mouse protected,[20],2
same,No. of mouse protected,[27],7
same,No. of mouse protected,[31],3
CN(C)CCNC(=O)c1cc(O)c2c(Cl)cc(Cl)cc2n1,No. of mouse protected,[32],4
same,ED50,[8],303 mg/kg
same,No. of mouse protected,[33],5
same,No. of mouse protected,[22],1
same,No. of mouse protected,[10],1

# — ChEMBL document CHEMBL1127098, “Anticonvulsant activity of glycine-site NMDA antagonists. 1. 2-carboxyl prodrugs of 5,7-dichlorokynurenic acid” (Bioorg Med Chem Lett, 1993)
